What is called pKi is the negative decadic logarithm of the Ki, by convention in mol/L.

The source of these data is US20230183239A1, “ECTONUCLEOTIDE PYROPHOSPHATASE-PHOSPHODIESTERASE 1 (ENPP-1) INHIBITORS AND USES THEREOF” (AbbVie Inc., priority 2017, published 2023).

The assay has as its target T1, ENPP1 (Homo sapiens, UniProt P22413).
T1 sequence (P22413 1-925): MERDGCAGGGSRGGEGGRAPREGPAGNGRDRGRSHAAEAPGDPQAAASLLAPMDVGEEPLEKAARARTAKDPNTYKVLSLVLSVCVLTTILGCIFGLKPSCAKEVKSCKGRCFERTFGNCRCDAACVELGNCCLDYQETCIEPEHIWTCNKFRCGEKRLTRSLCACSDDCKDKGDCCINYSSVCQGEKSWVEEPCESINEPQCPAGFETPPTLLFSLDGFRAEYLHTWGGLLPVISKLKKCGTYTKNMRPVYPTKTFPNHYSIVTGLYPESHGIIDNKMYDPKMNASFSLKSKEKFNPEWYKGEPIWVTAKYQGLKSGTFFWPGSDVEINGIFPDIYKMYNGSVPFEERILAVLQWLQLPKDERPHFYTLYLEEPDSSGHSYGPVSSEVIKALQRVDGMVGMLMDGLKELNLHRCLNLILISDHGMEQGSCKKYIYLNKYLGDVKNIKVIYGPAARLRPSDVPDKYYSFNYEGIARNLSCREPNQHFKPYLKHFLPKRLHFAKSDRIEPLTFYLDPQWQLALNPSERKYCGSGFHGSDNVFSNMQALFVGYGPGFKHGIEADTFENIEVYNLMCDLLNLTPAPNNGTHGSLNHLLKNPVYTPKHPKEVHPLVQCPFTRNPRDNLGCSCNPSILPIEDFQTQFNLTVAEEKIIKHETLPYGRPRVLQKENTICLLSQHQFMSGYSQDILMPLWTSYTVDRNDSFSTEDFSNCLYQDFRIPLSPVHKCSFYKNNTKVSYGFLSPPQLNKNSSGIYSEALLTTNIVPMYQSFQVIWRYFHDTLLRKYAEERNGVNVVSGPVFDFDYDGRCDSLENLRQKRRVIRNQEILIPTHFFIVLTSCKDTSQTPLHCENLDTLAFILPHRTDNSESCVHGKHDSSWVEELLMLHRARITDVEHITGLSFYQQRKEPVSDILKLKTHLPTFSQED
The experiment in a line: Indirect quantitation of 2',3'-cGAMP hydrolysis (AMP-Glo Assay kit). To be noted: cGAMP substrate; Ki from IC50 by Cheng-Prusoff; read-out: ENPP1 Inhibition -cGAMP: Ki. It counts as biochemical.

Molecules are shown by their SMILES. pKi: −log10 of the molar value.

`CCNS(=O)(=O)NCCC1CCN(c2ncnc3cc(OC)c(OC)cc23)CC1` [Example 139, 2-(1-(6,7-dimethoxyquinazolin-4-yl)piperidin-4-yl)ethan-1-amino(N-ethyl)sulfonamide]: the pKi is < 6.00. For `COc1cc2nccc(-c3ccc(CNS(N)(=O)=O)cc3)c2cn1` [Example 415, N-(4-(7-methoxy-1,6-naphthyridin-4-yl)benzyl)sulfamide] the value was 6.00 to 7.00.

Regarding `COc1cc2nccc(N3CCC(CCNS(=O)(=O)NCC(F)(F)F)CC3)c2cc1OC` [Example 177, 2-(1-(6,7-dimethoxyquinolin-4-yl)piperidin-4-yl)ethan-1-amino(N-trifluoroethyl) sulfonamide], the pKi was < 6.00. Take `Cn1cc(Br)c2ncnc(N3CCC(CCNS(N)(=O)=O)CC3)c21` [Example 138, N-(2-(1-(7-bromo-5-methyl-SH-pyrrolo[3,2-d]pyrimidin-4-yl)piperidin-4-yl)ethyl)sulfamide]: the pKi is 6.00 to 7.00. For the molecule `CNC(=O)c1cc(N2CCC(CCNS(N)(=O)=O)CC2)ncn1` [Example 130, N-methyl-6-(4-(2-(sulfamoylamino)ethyl)piperidin-1-yl)pyrimidine-4-carboxamide], the pKi was < 6.00. For `NS(=O)(=O)NCCC1CCN(c2ncnc3cc4c(cc23)OCO4)CC1` [Example 170, N-(2-(1-([1,3]dioxolo[4,5-g]quinazolin-8-yl)piperidin-4-yl)ethyl)sulfamide], the negative-log Ki (pKi) was < 6.00. `COc1cnc2c(Oc3ccc(NS(N)(=O)=O)cc3)ccnc2c1` [Example 349, N-(4-((7-methoxy-1,5-naphthyridin-4-yl)oxy)phenyl) sulfamide]: the negative-log Ki (pKi) is < 6.00.

Take `COc1cc2ncnc(N3CCc4c(cccc4S(=O)(=O)N4CCN(C)CC4)C3)c2cc1OC` [Example 41, 6,7-dimethoxy-4-(5-((4-methylpiperazin-1-yl)sulfonyl)-3,4-dihydroisoquinolin-2(1H)-yl)quinazoline]: the pKi is < 6.00. For `CNc1cc(OC)c(OC)cc1C(=O)N1CCC(CCNS(N)(=O)=O)CC1` [Example 123, N-(2-(1-(4,5-dimethoxy-2-(methylamino)benzoyl)piperidin-4-yl)ethyl)sulfamide] the value was < 6.00; for `COc1ccc(C(=O)N2CCC(CCNS(N)(=O)=O)CC2)cc1OC` [Example 47, N (2-(1-(3,4-dimethoxybenzoyl)piperidin-4-yl)ethyl)sulfamide], < 6.00. With `COc1ccc2c(Oc3ccc(C(=O)O)c(OC)c3)ccnc2c1` [Example 347, 2-methoxy-4-((7-methoxyquinolin-4-yl)oxy)benzoic acid] the figure was 6.00 to 7.00; with `COc1cc2nccc(C(=O)N3CCC(CCNS(N)(=O)=O)CC3)c2cc1OC` [Example 154, N-(2-(1-(6,7-dimethoxyquinoline-4-carbonyl)piperidin-4-yl)ethyl)sulfamide], < 6.00. Regarding `COc1cc2c(Oc3ccc(NS(N)(=O)=O)cc3)ccnc2cn1` [Example 411, N-(4-((6-methoxy-1,7-naphthyridin-4-yl)oxy)phenyl)sulfamide], the pKi was < 6.00. For `COc1ccc2c(-c3ccc4c(c3)CCN(S(N)(=O)=O)C4)ccnc2c1` [Example 366, 6-(7-methoxyquinolin-4-yl)-3,4-dihydroisoquinoline-2(1H)-sulfonamide] the value was < 6.00; for `NS(=O)(=O)NCCC1CCN(c2ccnc3ncn(-c4ccccc4)c23)CC1` [Example 211, N-(2-(1-(1-phenyl-1H-imidazo[4,5-b]pyridin-7-yl)piperidin-4-yl)ethyl)sulfamide], < 6.00. With `COc1cc2ncnc(NCc3ccc4c(c3)OCO4)c2cc1OC` [Example 336, N-(benzo[d][1,3]dioxol-5-ylmethyl)-6,7-dimethoxyquinazolin-4-amine] the figure was < 6.00; with `COc1cc2ncc(C#N)c(Oc3ccc(S(N)(=O)=O)cc3)c2cc1F` [Example 76, 4-((3-cyano-6-fluoro-7-methoxyquinolin-4-yl)oxy)benzenesulfonamide], > 7.00; with `COc1cc2ncnc(NCc3ccc4c(c3)COB4O)c2cc1OC` [Example 325, 5-(((6,7-dimethoxyquinazolin-4-yl)amino)methyl)benzo[c][1,2]oxa borol-1(3H)-ol], > 7.00.

Take `COc1ccc2c(Oc3ccc(NS(N)(=O)=O)cc3)ccnc2c1F` [Example 268, N-(4-((8-fluoro-7-methoxyquinolin-4-yl)oxy)phenyl)sulfamide]: the pKi was < 6.00.

Regarding `COc1ccc(-c2cc(N3CCC(CNS(N)(=O)=O)CC3)ncn2)cc1OC` [Example 37, N-((1-(6-(3,4-dimethoxyphenyl)pyrimidin-4-yl)piperidin-4-yl)methyl)sulfamide], the pKi was < 6.00. For `COc1cnc(C(=O)N2CCC(CCNS(N)(=O)=O)CC2)cc1OC` [Example 124, N-(2-(1-(4,5-dimethoxypicolinoyl)piperidin-4-yl)ethyl)sulfamide] the value was < 6.00; for `COc1ccc2c(Oc3ccc(NS(N)(=O)=O)cc3C)ccnc2c1` [Example 326, N-(4-((7-methoxyquinolin-4-yl)oxy)-3-methylphenyl)sulfamide], > 7.00. As to `COc1cc2ncnc(N3CCC(CCNS(=O)(=O)C(F)(F)F)CC3)c2cc1OC` [Example 146, N-(2-(1-(6,7-dimethoxyquinazolin-4-yl)piperidin-4-yl)ethyl)-1,1,1-trifluoromethanesulfonamide], the negative-log Ki (pKi) was 6.00 to 7.00. Turning to `COc1cc2ncc(-c3ccc(NS(N)(=O)=O)cc3)nc2cc1OC` [Example 270, N-(4-(6,7-dimethoxyquinoxalin-2-yl)phenyl)sulfamide], the pKi was < 6.00. For `NS(=O)(=O)NCCC1CCN(C(=O)c2ccccc2)CC1` [Example 50, N-(2-(1-(benzoyl)piperidin-4-yl)ethyl)sulfamide] the value was < 6.00. `COc1cc2nccc(Oc3ccc(N)c(F)c3)c2cc1OC` [Example 344, 4-((6,7-dimethoxyquinolin-4-yl)oxy)-2-fluoroaniline]: the negative logarithm of the Ki (pKi) is < 6.00.

Take `Cc1ncnc(N2CCC(NS(N)(=O)=O)CC2)c1C` [Example 39, N-(1-(5,6-dimethylpyrimidin-4-yl)piperidin-4-yl)sulfamide]: the pKi is < 6.00. In the case of `COc1cc2cnn(-c3ccc(CCNS(N)(=O)=O)cc3)c2cc1OC` [Example 210, N-(4-(5,6-dimethoxy-1H-indazol-1-yl)phenethyl)sulfamide], the negative logarithm of the Ki (pKi) is < 6.00. Regarding `COc1ccc2c(c1)OCC(=O)N2Cc1ccc(NS(N)(=O)=O)cc1` [Example 401, N-(4-((7-methoxy-3-oxo-2,3-dihydro-4H-benzo[b][1,4]oxazin-4-yl)methyl)phenyl)sulfamide], the negative-log Ki (pKi) is < 6.00. With `COc1cc2ncnc(N3CCC(CCNC(C)=O)CC3)c2cc1OC` [Example 335, N-(2-(1-(6,7-dimethoxyquinazolin-4-yl)piperidin-4-yl)ethyl)acetamide] the figure was 6.00 to 7.00. With `COc1cc2ncnc(NC(C)(C)c3ccc(NS(N)(=O)=O)cc3)c2cc1OC` [Example 287, N-(4-(2-((6,7-dimethoxyquinazolin-4-yl)amino)propan-2-yl)phenyl)sulfamide], the pKi is < 6.00. For `COc1ccc2c(c1)OCCN2c1ccc(CNS(N)(=O)=O)cc1` [Example 405, N-(4-(7-methoxy-2,3-dihydro-4H-benzo[b][1,4]oxazin-4-yl)benzyl)sulfamide], the pKi was < 6.00. On to `COc1ccc2c(Oc3ccc(N(C4CC4)S(N)(=O)=O)cc3)ccnc2c1` [Example 310, N-cyclopropyl-N-(4-((7-methoxyquinolin-4-yl)oxy)phenyl)sulfamide], for which the negative-log Ki (pKi) is > 7.00. Turning to `COc1cc2nccc(N3CCC4(CCNC4=O)CC3)c2cc1OC` [Example 187, 8-(6,7-dimethoxyquinolin-4-yl)-2,8-diazaspiro[4.5]decan-1-one], the pKi is < 6.00. On to `CCOc1ccc(S(=O)(=O)N2CCN(C)CC2)cc1-c1ncnc2cc(OC)c(OC)cc12` [Example 337, 4-(2-ethoxy-5-((4-methylpiperazin-1-yl)sulfonyl)phenyl)-6,7-dimethoxyquinazoline], for which the negative-log Ki (pKi) is < 6.00. In the case of `N#Cc1cnc2cc3c(cc2c1N1CCC(CCNS(N)(=O)=O)CC1)OCO3` [Example 221, N-(2-(1-(7-cyano-[1,3]dioxolo[4,5-g]quinolin-8-yl)piperidin-4-yl)ethyl)sulfamide], the pKi was < 6.00. For `COc1cc2ncnc(Nc3ccc(N4CCNS4(=O)=O)cc3)c2cc1OC` [Example 243, 2-(4-((6,7-dimethoxyquinazolin-4-yl)amino)phenyl)-1,2,5-thiadiazolidine 1,1-dioxide], the pKi was < 6.00. Turning to `COc1cc2ncnc(N3CCC(CCNS(=O)(=O)N4CCOCC4)CC3)c2cc1OC` [Example 132, N-(2-(1-(6,7-dimethoxyquinazolin-4-yl)piperidin-4-yl)ethyl)morpholine-4-sulfonamide], the pKi is 6.00 to 7.00.
